Assay results from patent US4895834A, “Renin inhibitors III” (Warner-Lambert Company, priority 1987, dated 1990).

Experiments:
[1] = tested on: renin maintained blood pressure (Hog renin infused); experiment: lowering renin maintained blood pressure in the anesthetized, vagotomized, ganglionic-blocked rat (hog renin infused); type: in vivo; conditions: 1 mg/kg IV
Experimental: The effectiveness of the aforementioned compounds in vivo is determined by their effect on lowering renin maintained blood pressure in the anesthetized, vagotomized, ganglionic-blocked rat.
After the blood pressure has stabilized, 1.25 mg/kg IV mecamylamine is added to produce ganglionic blockade. Hog renin is then infused to bring the blood pressure to a level observed before vagotomy and ganglionic blockade. Test compound is then administered IV and the drop in blood pressure is noted.
The compound was administered at as dose of 1 mg/kg.

renin = target: T1, renin (Homo sapiens, UniProt P00797); experiment: in vitro renin inhibitory activity, radioimmunoassay for angiotensin I; type: biochemical; conditions: molar concentration causing 50% inhibition of renin activity; renin incubated two hours at 37° with angiotensinogen
T1 sequence (P00797 67-406): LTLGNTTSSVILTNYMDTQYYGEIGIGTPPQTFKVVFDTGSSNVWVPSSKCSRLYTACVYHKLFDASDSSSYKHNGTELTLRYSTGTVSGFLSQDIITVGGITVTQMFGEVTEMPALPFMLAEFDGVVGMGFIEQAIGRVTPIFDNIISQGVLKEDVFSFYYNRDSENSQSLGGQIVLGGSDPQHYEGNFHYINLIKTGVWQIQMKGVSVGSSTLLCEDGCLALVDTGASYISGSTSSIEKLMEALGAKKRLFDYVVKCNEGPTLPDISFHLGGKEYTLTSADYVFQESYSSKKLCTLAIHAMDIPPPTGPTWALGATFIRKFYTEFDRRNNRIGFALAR
Experimental: The effectiveness of the aforementioned compound is determined by a test for in vitro renin inhibitory activity. This activity is determined by a standard radioimmunoassay for angiotensin I. In this assay the enzyme, renin, incubated for two hours at 37° in the presence of a substrate, angiotensinogen, generates the product, angiotensin I. Test compounds are added to the incubation mixture. Relative activity is reported as the IC50, which is the molar concentration of test compound causing a 50% inhibition of the renin activity.

Q: For `CC(C)C[C@H](NC(=O)C[C@H](O)[C@H](CC(C)C)NC(=O)[C@H](Cc1c[nH]cn1)NC(=O)C(Cc1cccc2ccccc12)Cc1cccc2ccccc12)C(=O)NCc1ccccc1` [Example 1, DNMA-HIS-STA-LEU-NHCH2 Ph], which “Percent Decrease of Blood Pressure” value [1] is on record?
A: 65%

Q: How did the IC50 (renin) turn out when `CC[C@H](C)CNC(=O)C[C@H](O)[C@H](CC(C)C)NC(=O)[C@H](Cc1c[nH]cn1)NC(=O)C(Cc1cccc2ccccc12)C(=O)OC(C)(C)C` (some centres unmarked) [Example 2] was run?
A: 560 nM

Q: For `CC(C)C[C@H](NC(=O)[C@H](Cc1c[nH]cn1)NC(=O)C(Cc1cccc2ccccc12)Cc1cccc2ccccc12)[C@@H](O)CC(=O)NCC(O)CSC(C)C` (some centres unmarked) [Example 3, DNMA-HIS-STA-NHCH2 CH(OH)CH2 SCH(CH3)2], which IC50 (renin) is on record?
A: 220 nM

Q: With `CC(C)C[C@H](NC(=O)[C@H](Cc1c[nH]cn1)NC(=O)C(Cc1cccc2ccccc12)Cc1cccc2ccccc12)[C@@H](O)CC(=O)NCC(O)CS(=O)(=O)C(C)C` (some centres unmarked) [Example 4, DNMA-HIS-STA-NHCH2 CH(OH)CH2 SO2 CH(CH3)2] as the compound, how does the IC50 (renin) read?
A: 82 nM

Q: Which IC50 (renin) does the source give for `CC(C)C[C@H](NC(=O)C[C@H](O)[C@H](CC(C)C)NC(=O)[C@H](Cc1c[nH]cn1)NC(=O)C(Cc1ccccc1)SCc1ccccc1)C(=O)NCc1ccccc1` (some centres unmarked) [Example 11] here?
A: 2200 nM

Q: With `CC(C)C[C@H](NC(=O)C[C@H](O)[C@H](CC1CCCCC1)NC(=O)[C@H](CC(=O)O)NC(=O)C(Cc1cccc2ccccc12)Cc1cccc2ccccc12)C(=O)NCc1ccccc1` [Example 17, DNMA-ASP-CYSTA-LEU-NHCH2 Ph] as the compound, how does the IC50 (renin) read?
A: 980 nM

Q: With `CC(C)C[C@H](NC(=O)C[C@H](O)[C@H](CC(C)C)NC(=O)[C@H](Cc1cnc[nH]1)N(C)C(=O)C(Cc1cccc2ccccc12)Cc1cccc2ccccc12)C(=O)NCc1ccccc1` [Example 20, DNMA-(N-MeHIS)-STA-LEU-NHCH2 Ph] as the compound, how does the IC50 (renin) read?
A: 4100 nM

Q: Which IC50 (renin) does the source give for `CC(C)C[C@H](NC(=O)[C@H](Cc1c[nH]cn1)NC(=O)C(Cc1cccc2ccccc12)Cc1cccc2ccccc12)[C@@H](O)CC(=O)NCc1cccc(CNC(=O)OCc2ccccc2)c1` [Example 22] here?
A: 4000 nM
